target: human adenosine A2b receptor (Homo sapiens (Human), UniProt P29275); test: Cellular in vitro reporter gene test for A2b receptor activity (CHO-K1, CRE-luciferase, NECA stimulation); type: cell-based; settings: recombinant CHO-K1 cell line, CRE-luciferase reporter, antagonism of EC50 concentration of NECA; in some cases means of several determinations, rounded to two significant figures; read-out: A2b receptor IC50
Summary of the method: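 CHO-K1 cells with CRE-driven luciferase; antagonists co-incubated with NECA at its EC50, determined in a pre-experiment on each test day. Luciferase read by luminescence 3 h after NECA addition.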

Sequence of human adenosine A2b receptor (P29275 whole entry): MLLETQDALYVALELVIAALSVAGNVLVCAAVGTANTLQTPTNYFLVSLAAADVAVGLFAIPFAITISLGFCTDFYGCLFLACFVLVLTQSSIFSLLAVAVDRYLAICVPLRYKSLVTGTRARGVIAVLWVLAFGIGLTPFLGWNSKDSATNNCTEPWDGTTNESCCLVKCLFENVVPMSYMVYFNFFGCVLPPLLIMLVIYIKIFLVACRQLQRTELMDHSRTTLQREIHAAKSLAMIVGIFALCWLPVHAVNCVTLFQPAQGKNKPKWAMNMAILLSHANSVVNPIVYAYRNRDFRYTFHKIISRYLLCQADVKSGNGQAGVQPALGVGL

Row | SMILES | IC50 [nM]
1 | CCn1c(=O)c2c(C)c(CN3CCNC3=O)sc2n(CC2CCOC2)c1=O (single isomer, unassigned; enantiomer 2) [Example 75, 3-Ethyl-5-methyl-6-[(2-oxoimidazolidin-1-yl)methyl]-1-(tetrahydrofuran-3-ylmethyl)thieno[2,3-d]pyrimidine-2,4(1H,3H)-dione (Enantiomer 2)] | 40
2 | COCCn1c(=O)n(CCc2ccccc2)c(=O)c2c(C)c(CN3CCC3=O)sc21 [Example 1, 1-(2-Methoxyethyl)-5-methyl-6-[(2-oxoazetidin-1-yl)methyl]-3-(2-phenylethyl)thieno[2,3-d]pyrimidine-2,4(1H,3H)-dione] | 9.7
3 | CCn1c(=O)c2c(C)c(CN3CCC3=O)sc2n(CCC(F)(F)F)c1=O [Example 2, 3-Ethyl-5-methyl-6-[(2-oxoazetidin-1-yl)methyl]-1-(3,3,3-trifluoropropyl)thieno[2,3-d]pyrimidine-2,4(1H,3H)-dione] | 11
4 | CCn1c(=O)c2c(C)c(CN3CCCC3=O)sc2n(CCC(F)(F)F)c1=O [Example 4, 3-Ethyl-5-methyl-6-[(2-oxopyrrolidin-1-yl)methyl]-1-(3,3,3-trifluoropropyl)thieno[2,3-d]pyrimidine-2,4(1H,3H)-dione] | 5.2
5 | COCCn1c(=O)n(CCc2ccccc2)c(=O)c2c(C(F)(F)F)c(CN3CCCC3=O)sc21 [Example 5, 1-(2-Methoxyethyl)-6-[(2-oxopyrrolidin-1-yl)methyl]-3-(2-phenylethyl)-5-(trifluoromethyl)thieno[2,3-d]pyrimidine-2,4(1H,3H)-dione] | 8.4
6 | CCn1c(=O)c2c(C)c(CN3CC[C@@H](O)C3=O)sc2n(CCOC)c1=O [Example 7, 3-Ethyl-6-{[(3R)-3-hydroxy-2-oxopyrrolidin-1-yl]methyl}-1-(2-methoxyethyl)-5-methylthieno[2,3-d]pyrimidine-2,4(1H,3H)-dione] | 33
7 | CCn1c(=O)c2c(C)c(CN3Cc4ccccc4C3=O)sc2n(CCC(F)(F)F)c1=O [Example 11, 3-Ethyl-5-methyl-6-[(1-oxo-1,3-dihydro-2H-isoindol-2-yl)methyl]-1-(3,3,3-trifluoropropyl)thieno[2,3-d]pyrimidine-2,4(1H,3H)-dione] | 19
8 | CCn1c(=O)c2c(C)c(CN3CCCCC3=O)sc2n(CCC(F)(F)F)c1=O [Example 12, 3-Ethyl-5-methyl-6-[(2-oxopiperidin-1-yl)methyl]-1-(3,3,3-trifluoropropyl)thieno[2,3-d]pyrimidine-2,4(1H,3H)-dione] | 12
9 | COCCn1c(=O)n(CCc2ccccc2)c(=O)c2c(C)c(CN3CCOCC3=O)sc21 [Example 13, 1-(2-Methoxyethyl)-5-methyl-6-[(3-oxomorpholin-4-yl)methyl]-3-(2-phenylethyl)thieno[2,3-d]pyrimidine-2,4(1H,3H)-dione] | 17
10 | CCn1c(=O)c2c(C)c(CN3CCOCC3=O)sc2n(CCC(F)(F)F)c1=O [Example 14, 3-Ethyl-5-methyl-6-[(3-oxomorpholin-4-yl)methyl]-1-(3,3,3-trifluoropropyl)thieno[2,3-d]pyrimidine-2,4(1H,3H)-dione] | 19
11 | COCCn1c(=O)n(CCc2ccccc2)c(=O)c2c(C)c(CN3CCCS3(=O)=O)sc21 [Example 15, 6-[(1,1-Dioxido-1,2-thiazolidin-2-yl)methyl]-1-(2-methoxyethyl)-5-methyl-3-(2-phenylethyl)thieno[2,3-d]pyrimidine-2,4(1H,3H)-dione] | 3.1
12 | CCn1c(=O)c2c(C)c(CN3CCCS3(=O)=O)sc2n(CCC(F)(F)F)c1=O [Example 16, 6-[(1,1-Dioxido-1,2-thiazolidin-2-yl)methyl]-3-ethyl-5-methyl-1-(3,3,3-trifluoropropyl)thieno[2,3-d]pyrimidine-2,4(1H,3H)-dione] | 2.7
13 | CCn1c(=O)c2c(C)c(CN3CCCS3(=O)=O)sc2n(CCOC)c1=O [Example 17, 6-[(1,1-Dioxido-1,2-thiazolidin-2-yl)methyl]-3-ethyl-1-(2-methoxyethyl)-5-methylthieno[2,3-d]pyrimidine-2,4(1H,3H)-dione] | 16
14 | COCCn1c(=O)n(CCc2ccccc2)c(=O)c2c(C(F)(F)F)c(CN3CCCS3(=O)=O)sc21 [Example 18, 6-[(1,1-Dioxido-1,2-thiazolidin-2-yl)methyl]-1-(2-methoxyethyl)-3-(2-phenylethyl)-5-(trifluoromethyl)thieno[2,3-d]pyrimidine-2,4(1H,3H)-dione] | 14
15 | CCn1c(=O)c2c(C(F)(F)F)c(CN3CCCS3(=O)=O)sc2n(CCC(F)(F)F)c1=O [Example 19, 6-[(1,1-Dioxido-1,2-thiazolidin-2-yl)methyl]-3-ethyl-5-(trifluoromethyl)-1-(3,3,3-trifluoropropyl)thieno[2,3-d]pyrimidine-2,4(1H,3H)-dione] | 5.6
16 | CCn1c(=O)c2c(C)c(CN3CCOC3=O)sc2n(CCC(F)(F)F)c1=O [Example 21, 3-Ethyl-5-methyl-6-[(2-oxo-1,3-oxazolidin-3-yl)methyl]-1-(3,3,3-trifluoropropyl)thieno[2,3-d]pyrimidine-2,4(1H,3H)-dione] | 5.1

Row | SMILES | IC50 [nM]
17 | COCCn1c(=O)n(CCc2ccccc2)c(=O)c2c(C(F)(F)F)c(CN3CCOC3=O)sc21 [Example 22, 1-(2-Methoxyethyl)-6-[(2-oxo-1,3-oxazolidin-3-yl)methyl]-3-(2-phenylethyl)-5-(trifluoromethyl)thieno[2,3-d]pyrimidine-2,4(1H,3H)-dione] | 24
18 | CCn1c(=O)c2c(C(F)(F)F)c(CN3CCOC3=O)sc2n(CCC(F)(F)F)c1=O [Example 23, 3-Ethyl-6-[(2-oxo-1,3-oxazolidin-3-yl)methyl]-5-(trifluoromethyl)-1-(3,3,3-trifluoropropyl)thieno[2,3-d]pyrimidine-2,4(1H,3H)-dione] | 16
19 | CCn1c(=O)c2c(C)c(CN3C(=O)OCC3(C)C)sc2n(CCC(F)(F)F)c1=O [Example 24, 6-[(4,4-Dimethyl-2-oxo-1,3-oxazolidin-3-yl)methyl]-3-ethyl-5-methyl-1-(3,3,3-trifluoropropyl)thieno[2,3-d]pyrimidine-2,4(1H,3H)-dione] | 8.8
20 | CCn1c(=O)c2c(C)c(CN3CCCOC3=O)sc2n(CCC(F)(F)F)c1=O [Example 25, 3-Ethyl-5-methyl-6-[(2-oxo-1,3-oxazinan-3-yl)methyl]-1-(3,3,3-trifluoropropyl)thieno[2,3-d]pyrimidine-2,4(1H,3H)-dione] | 5.7
21 | CCn1c(=O)c2c(C)c(CN3CCN(C(=O)OC(C)(C)C)S3(=O)=O)sc2n(CCC(F)(F)F)c1=O [Example 26, tert-Butyl 5-{[3-ethyl-5-methyl-2,4-dioxo-1-(3,3,3-trifluoropropyl)-1,2,3,4-tetrahydrothieno[2,3-d]pyrimidin-6-yl]methyl}-1,2,5-thiadiazolidine-2-carboxylate 1,1-dioxide] | 11
22 | CCn1c(=O)c2c(C)c(CN3CCNS3(=O)=O)sc2n(CCC(F)(F)F)c1=O [Example 27, 6-[(1,1-Dioxido-1,2,5-thiadiazolidin-2-yl)methyl]-3-ethyl-5-methyl-1-(3,3,3-trifluoropropyl)thieno[2,3-d]pyrimidine-2,4(1H,3H)-dione] | 2.7
23 | CCn1c(=O)c2c(C)c(CN3CCNC3=S)sc2n(CCC(F)(F)F)c1=O [Example 28, 3-Ethyl-5-methyl-6-[(2-thioxoimidazolidin-1-yl)methyl]-1-(3,3,3-trifluoropropyl)thieno[2,3-d]pyrimidine-2,4(1H,3H)-dione] | 1.9
24 | CCn1c(=O)c2c(C)c(CN3CCNC3=S)sc2n(CCCF)c1=O [Example 29, 3-Ethyl-1-(3-fluoropropyl)-5-methyl-6-[(2-thioxoimidazolidin-1-yl)methyl]thieno[2,3-d]pyrimidine-2,4(1H,3H)-dione] | 4.1
25 | CCn1c(=O)c2c(C)c(CN3CCNC3=S)sc2n(CCCCF)c1=O [Example 30, 3-Ethyl-1-(4-fluorobutyl)-5-methyl-6-[(2-thioxoimidazolidin-1-yl)methyl]thieno[2,3-d]pyrimidine-2,4(1H,3H)-dione] | 5
26 | CCn1c(=O)c2c(C)c(CN3CCNC3=S)sc2n(CCOC)c1=O [Example 31, 3-Ethyl-1-(2-methoxyethyl)-5-methyl-6-[(2-thioxoimidazolidin-1-yl)methyl]thieno[2,3-d]pyrimidine-2,4(1H,3H)-dione] | 2.2
27 | CCOCCn1c(=O)n(CC)c(=O)c2c(C)c(CN3CCNC3=S)sc21 [Example 32, 1-(2-Ethoxyethyl)-3-ethyl-5-methyl-6-[(2-thioxoimidazolidin-1-yl)methyl]thieno[2,3-d]pyrimidine-2,4(1H,3H)-dione] | 11
28 | CCn1c(=O)c2c(C)c(CN3CCNC3=S)sc2n(CCOC(C)C)c1=O [Example 33, 3-Ethyl-1-(2-isopropoxyethyl)-5-methyl-6-[(2-thioxoimidazolidin-1-yl)methyl]thieno[2,3-d]pyrimidine-2,4(1H,3H)-dione] | 12
29 | CCn1c(=O)c2c(C)c(CN3CCNC3=S)sc2n(CCC(C)(C)C)c1=O [Example 37, 1-(3,3-Dimethylbutyl)-3-ethyl-5-methyl-6-[(2-thioxoimidazolidin-1-yl)methyl]thieno[2,3-d]pyrimidine-2,4(1H,3H)-dione] | 220
30 | Cc1c(CN2CCNC2=S)sc2c1c(=O)n(CC(C)C)c(=O)n2CCC(F)(F)F [Example 38, 3-Isobutyl-5-methyl-6-[(2-thioxoimidazolidin-1-yl)methyl]-1-(3,3,3-trifluoropropyl)thieno[2,3-d]pyrimidine-2,4(1H,3H)-dione] | 1.9
31 | COCCn1c(=O)n(CC(C)C)c(=O)c2c(C)c(CN3CCNC3=S)sc21 [Example 39, 3-Isobutyl-1-(2-methoxyethyl)-5-methyl-6-[(2-thioxoimidazolidin-1-yl)methyl]thieno[2,3-d]pyrimidine-2,4(1H,3H)-dione] | 3.6
32 | Cc1c(CN2CCNC2=S)sc2c1c(=O)n(CC(F)(F)F)c(=O)n2CCCF [Example 40, 1-(3-Fluoropropyl)-5-methyl-6-[(2-thioxoimidazolidin-1-yl)methyl]-3-(2,2,2-trifluoroethyl)thieno[2,3-d]pyrimidine-2,4(1H,3H)-dione] | 7

— patent US10428083B2, “Heterocyclylmethyl-thienouracile as antagonists of the adenosine-A2B-receptor” (BAYER PHARMA AKTIENGESELLSCHAFT, priority 2015, dated 2019)
